Measurements: article PMC6522510 (Nature Communications, 2019)

What was measured:
Set-up in all cases: species or system AML cell lines (8); Primary HTS, single concentration about 10 uM, Cell Titer Glo viability; log10 luminescence, per cent inhibition relative to cycloheximide control
Conditions in all cases: 72 h, relative to cycloheximide control, log10 luminescence; inhibitor
[1] = tested on: CMK
[2] = tested on: CHRF288-11
[3] = tested on: CMS
[4] = tested on: ML-2
[5] = tested on: MOLM-13
[6] = tested on: MV4-11
[7] = tested on: U937
[8] = tested on: M07e

| SMILES | CMK %inh [1] | CHRF288-11 %inh [2] | CMS %inh [3] | ML-2 %inh [4] | MOLM-13 %inh [5] | MV4-11 %inh [6] | U937 %inh [7] | M07e %inh [8] |
| --- | --- | --- | --- | --- | --- | --- | --- | --- |
| O=C(Nc1ccc(Oc2ccc3[nH]c(NC(=O)c4ccco4)nc3c2)cc1)Nc1cc(C(F)(F)F)ccc1F [SJ000573033-1, T261/93/1] | 84.76% | 89.61% | 23.46% | 20.85% | 87.05% | 70.61% | 42.07% | 35.38% |
| NS(=O)(=O)c1cccc(-c2cc3ccncc3cc2OCc2ccccc2)c1 [SJ000573034-1, R14712/3/10] | -0.5905% | 2.678% | 1.551% | 0.9825% | 2.316% | 0.8878% | 3.709% | -1.198% |
| COc1cccc(-n2ncc3c(N/N=C/c4ccc(C)cc4)ncnc32)c1 [SJ000573035-1, U19125/70/4] | -4.291% | -5.466% | 5.04% | -2.47% | -2.64% | -1.749% | 2.182% | -2.359% |
| CNC(=O)c1ncccc1Nc1nc(Nc2cc3c(cc2OC)CCCN3C(=O)CN(C)C)nc2[nH]ccc12 [SJ000573036-1, N6938-65-1] | 7.075% | 21.29% | 1.812% | 45.98% | 47.47% | 4.775% | 17.5% | 30.44% |
| COc1cccc(-n2ncc3c(N/N=C/c4ccncc4)ncnc32)c1 [SJ000573037-1, U25132/28/11] | -6.6% | 6.081% | 4.136% | 0.6096% | -2.08% | 1.553% | -2.89% | -4.147% |
| COc1cc2c(cc1Nc1nc(Nc3ccsc3C(N)=O)c3cc[nH]c3n1)N(C(=O)CN(C)C)CCC2(C)C [SJ000573038-1, N3343-83-1] | 81.26% | 128.8% | 16.39% | 44.68% | 92.5% | 43.78% | 51.73% | 57.48% |
| C[C@@H](Oc1cc(-n2cnc3ccc(OCC4CCN(C)CC4)cc32)sc1C(N)=O)c1ccccc1Cl [SJ000573039-1, U21976/12/1] | 58.58% | 126.6% | 55.73% | 55.39% | 92.23% | 68.81% | 67.65% | 70.45% |
| COc1cc(C)c(NC(=O)CN(C)C)cc1Nc1nc(Nc2cccc(F)c2C(N)=O)c2cc[nH]c2n1 [SJ000573040-1, N5326-72-2] | 111.2% | 60.84% | 31.36% | 42.89% | 90.07% | 56.47% | 70.41% | 103.3% |
| Nc1ccc(C#Cc2cncnc2Nc2ccc(OCc3cccc(F)c3)c(Cl)c2)cc1 [SJ000573041-1, U17810/18/1] | 13.47% | 2.448% | 3.795% | 5.257% | 7.505% | 4.494% | 3.684% | 8.047% |
| COc1cc(C)c(N(C)C(=O)CN(C)C)cc1Nc1nc(Nc2cccc(F)c2C(N)=O)c2cc[nH]c2n1 [SJ000573042-1, N5326-79-1] | 3.967% | 20.31% | 1.596% | 14.99% | -1.115% | 3.146% | -0.591% | -1.728% |
